Laboratory results as given in patent EP0606463B1, “NEUROMEDIN B RECEPTOR ANTAGONISTS” (The Administrators of The Tulane Educational Fund, priority 1992, dated 1994).
Where a SMILES comes first, the peptide text is derived from it. Bridges are numbered along the chain shown (N, C = ends). [ ]: non-standard residue; d: D form. 2Nal = N[C@@H](Cc1ccc2ccccc2c1)C(=O)O; d2Nal = N[C@H](Cc1ccc2ccccc2c1)C(=O)O

Assays:
[1] = tested on: endothelin-1-simulated increases in [^3H]IP; experiment: Endothelin-1-stimulated [3H]IP in C-6 glioblastoma cells; assay type: cell-based, rat; details: for effect on endothelin-1-simulated increases in [^3H]IP in C-6 cells: Table 3
Experimental: Total phosphoinositides in C-6 cells and in NMB-R transfected cells were determined as described previously, with minor modifications [Benya, R. V. et al. Mol. Pharmacol. 42:1058 (1992); and Wang, L-H. et al. Biochem. J. 286:641 (1992)]. Cells were grown to confluence in 24-well plates and then loaded with 100 µCi/ml myo-[2-^3H]inositol in Dulbecco's modified essential medium with 2% fetal bovine serum at 37°C for 48 hrs. Cells were washed and incubated in phosphoinositide buffer (standard buffer additionally containing 10 mM LiCl, 20 mM HEPES, 2 mM CaCl2, 2% BSA, and 1.2 mM MgSO4) for 15 min and then for 60 min at 37°C with agonists at various concentrations or with 3 nM NMB (a half-maximal effective concentration) and possible antagonists at different concentrations. Reactions were halted using ice-cold 1% HCl in methanol, and the inositol phosphates (IP) were isolated as described previously [Bologna, M. et al. Cancer 63:1714 (1989); and Endo, T. et al. J. Endocrinol. 131:313 (1991)]. Briefly, after loading of the anion exchange column, free [^3H]glycerophosphorylinositol was removed by washing with 5 mM disodium tetraborate in 60 mM sodium formate. Total [^3H]inositol phosphates were then eluted using 100 mM formic acid in 1.0 M ammonium formate as described previously [Benya, R. V. et al. Mol. Pharmacol. 42:1058 (1992); and Wang, L-H. et al. Biochem. J. 286:641 (1992)].

benzodiazepine-neural = experiment: Neural benzodiazepine membrane receptor assay; assay type: binding, rat; details: at 1 µM
rat NMB receptor = biological target: T1, rat NMB receptor (Rattus norvegicus, UniProt P24053); experiment: Binding of 125I-[D-Tyr0]NMB to NMB-R transfected BALB 3T3 cells; details: for fold greater affinity for the NMB than the GRP receptors: NMB-R transfected cells versus GRP receptors on rat pancreatic acini
T1 construct: a full length NMB-preferring bombesin receptor clone generated from rat esophagus; expressed in transfected cells; host or cells: BALB 3T3 cells
T1 sequence (P24053 1-390): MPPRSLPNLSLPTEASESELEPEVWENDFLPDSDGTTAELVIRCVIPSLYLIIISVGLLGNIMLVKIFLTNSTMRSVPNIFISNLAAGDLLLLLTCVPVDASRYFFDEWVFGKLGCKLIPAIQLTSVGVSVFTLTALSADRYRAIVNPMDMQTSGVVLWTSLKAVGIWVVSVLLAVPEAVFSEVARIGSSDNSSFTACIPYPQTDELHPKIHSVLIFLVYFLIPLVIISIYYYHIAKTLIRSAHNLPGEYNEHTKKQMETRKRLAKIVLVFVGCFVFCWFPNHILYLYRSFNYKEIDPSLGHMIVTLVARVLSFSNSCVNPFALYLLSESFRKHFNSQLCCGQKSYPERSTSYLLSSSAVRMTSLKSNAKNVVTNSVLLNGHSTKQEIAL

α2- adrenergic = experiment: alpha2-adrenergic membrane receptor assay; assay type: binding, rat; details: at 1 µM
dopamine2 = biological target: T2, dopamine2 (Rattus norvegicus, UniProt P61169); experiment: dopamine2 membrane receptor assay; assay type: binding; details: at 1 µM
T2 construct: rat corpus striatum (dopamine1 and dopamine2 membrane receptor assays); from tissue; host or cells: rat corpus striatum membranes
T2 sequence (P61169 whole entry): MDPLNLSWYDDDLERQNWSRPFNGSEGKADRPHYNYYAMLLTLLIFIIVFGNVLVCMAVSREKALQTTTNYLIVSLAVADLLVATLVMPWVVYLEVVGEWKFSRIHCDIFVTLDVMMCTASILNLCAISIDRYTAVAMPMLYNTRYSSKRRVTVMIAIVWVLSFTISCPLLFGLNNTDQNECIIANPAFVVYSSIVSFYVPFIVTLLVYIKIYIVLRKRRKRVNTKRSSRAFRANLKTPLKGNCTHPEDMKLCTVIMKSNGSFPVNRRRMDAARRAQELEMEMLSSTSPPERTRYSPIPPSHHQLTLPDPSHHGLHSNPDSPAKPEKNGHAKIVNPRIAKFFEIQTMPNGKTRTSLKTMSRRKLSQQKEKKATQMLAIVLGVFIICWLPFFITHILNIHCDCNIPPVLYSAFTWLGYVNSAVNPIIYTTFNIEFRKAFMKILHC

bradykinin1 = experiment: Bradykinin membrane receptor assay; assay type: binding; details: at 1 µM
histamine H1 = biological target: T3, histamine H1 (Cavia porcellus, UniProt P31389); experiment: histamine H1 membrane receptor assay; assay type: binding, guinea pig; details: at 1 µM
T3 construct: guinea pig cerebral (N1, histamine H1, and sigma opioid membrane receptor assays); from tissue; host or cells: guinea pig cerebral membranes
T3 sequence (P31389 whole entry): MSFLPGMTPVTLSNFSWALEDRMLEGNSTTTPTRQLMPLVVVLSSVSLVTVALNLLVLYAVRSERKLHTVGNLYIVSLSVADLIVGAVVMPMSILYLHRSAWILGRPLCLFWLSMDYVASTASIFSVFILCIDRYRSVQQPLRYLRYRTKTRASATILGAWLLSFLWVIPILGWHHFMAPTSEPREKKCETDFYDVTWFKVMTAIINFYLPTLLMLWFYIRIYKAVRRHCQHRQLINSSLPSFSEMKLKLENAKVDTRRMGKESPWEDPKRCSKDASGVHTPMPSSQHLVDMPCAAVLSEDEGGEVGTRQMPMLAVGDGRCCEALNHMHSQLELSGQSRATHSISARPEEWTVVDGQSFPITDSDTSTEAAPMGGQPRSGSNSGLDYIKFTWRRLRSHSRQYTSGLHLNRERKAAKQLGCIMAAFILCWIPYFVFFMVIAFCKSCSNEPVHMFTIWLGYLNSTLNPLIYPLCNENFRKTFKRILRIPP

β1-adrenergic = biological target: T4, β1-adrenergic (Homo sapiens, UniProt P08588); experiment: beta1-adrenergic membrane receptor assay; assay type: binding; details: at 1 µM
T4 construct: receptors on plasma membranes on various tissues determined as described in METHODS; from tissue
T4 sequence (P08588 whole entry): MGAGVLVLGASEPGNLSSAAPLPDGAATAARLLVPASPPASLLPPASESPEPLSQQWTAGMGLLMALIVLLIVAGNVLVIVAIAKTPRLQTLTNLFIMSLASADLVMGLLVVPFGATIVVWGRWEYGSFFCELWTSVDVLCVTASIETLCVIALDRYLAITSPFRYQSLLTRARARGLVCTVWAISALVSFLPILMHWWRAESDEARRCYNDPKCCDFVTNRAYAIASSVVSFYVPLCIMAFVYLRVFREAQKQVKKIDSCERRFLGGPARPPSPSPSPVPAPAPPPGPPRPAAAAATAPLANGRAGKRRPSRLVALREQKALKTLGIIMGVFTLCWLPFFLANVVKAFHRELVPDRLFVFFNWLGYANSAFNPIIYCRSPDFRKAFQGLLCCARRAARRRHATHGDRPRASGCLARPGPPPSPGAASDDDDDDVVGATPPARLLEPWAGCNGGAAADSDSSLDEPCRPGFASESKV

CCKA receptors = biological target: T5, CCKA receptors (Rattus norvegicus, UniProt P30551); experiment: CCKA receptor assay (125I-CCK-8, rat pancreatic membranes); assay type: binding; details: at 1 µM
T5 construct: rat pancreas (CCKA receptor assay); from tissue; host or cells: rat pancreatic membranes
T5 sequence (P30551 whole entry): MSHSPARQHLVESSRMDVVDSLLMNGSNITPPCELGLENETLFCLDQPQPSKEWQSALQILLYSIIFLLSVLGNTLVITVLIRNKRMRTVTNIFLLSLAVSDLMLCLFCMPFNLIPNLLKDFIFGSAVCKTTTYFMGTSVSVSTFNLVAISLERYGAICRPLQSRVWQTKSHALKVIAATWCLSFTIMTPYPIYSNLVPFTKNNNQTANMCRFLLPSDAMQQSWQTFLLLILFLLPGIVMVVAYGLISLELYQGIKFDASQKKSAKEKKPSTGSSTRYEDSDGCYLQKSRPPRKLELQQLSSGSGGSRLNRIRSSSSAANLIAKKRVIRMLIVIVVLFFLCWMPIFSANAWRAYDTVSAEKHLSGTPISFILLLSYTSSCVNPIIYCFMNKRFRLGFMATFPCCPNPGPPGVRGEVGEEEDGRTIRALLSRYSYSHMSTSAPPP

[2] = biological target: T6, benzodiazepine-peripheral receptor (Rattus norvegicus, UniProt P16257); experiment: Peripheral benzodiazepine membrane receptor assay; assay type: binding; details: at 1 µM
T6 construct: rat cerebral cortex (CCKB, PYY, neurotensin, ∝1-adrenergic, ∝2-adrenergic, muscarinic cholinergic, neural benzodiazepine, peripheral benzodiazepine); from tissue; host or cells: rat cerebral cortex membranes
T6 sequence (P16257 whole entry): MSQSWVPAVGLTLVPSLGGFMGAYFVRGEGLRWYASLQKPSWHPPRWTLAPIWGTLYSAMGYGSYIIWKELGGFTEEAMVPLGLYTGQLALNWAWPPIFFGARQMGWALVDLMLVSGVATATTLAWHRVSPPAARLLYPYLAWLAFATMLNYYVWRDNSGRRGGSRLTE

delta opioid = biological target: T7, delta opioid (Rattus norvegicus, UniProt P33533); experiment: delta opioid membrane assay; assay type: binding; details: at 1 µM
T7 construct: rat forebrain (TRH, mu and delta opioid membrane assays); from tissue; host or cells: rat forebrain membranes
T7 sequence (P33533 whole entry): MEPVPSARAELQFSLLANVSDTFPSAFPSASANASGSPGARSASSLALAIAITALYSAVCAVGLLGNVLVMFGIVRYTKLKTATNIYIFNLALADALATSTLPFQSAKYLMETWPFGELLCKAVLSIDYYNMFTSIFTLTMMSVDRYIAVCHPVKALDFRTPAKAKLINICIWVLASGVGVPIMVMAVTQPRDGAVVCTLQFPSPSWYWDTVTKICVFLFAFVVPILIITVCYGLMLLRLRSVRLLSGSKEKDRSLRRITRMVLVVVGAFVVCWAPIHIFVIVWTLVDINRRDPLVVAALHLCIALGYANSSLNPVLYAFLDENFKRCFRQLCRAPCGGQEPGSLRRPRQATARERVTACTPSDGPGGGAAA

adenosine1 = biological target: T8, adenosine1 (Rattus norvegicus, UniProt P25099); experiment: Adenosine membrane receptor assay; assay type: binding; details: at 1 µM
T8 construct: rat cerebral cortex (CCKB, PYY, neurotensin, ∝1-adrenergic, ∝2-adrenergic, muscarinic cholinergic, neural benzodiazepine, peripheral benzodiazepine, adenosine); from tissue; host or cells: rat cerebral cortex membranes
T8 sequence (P25099 whole entry): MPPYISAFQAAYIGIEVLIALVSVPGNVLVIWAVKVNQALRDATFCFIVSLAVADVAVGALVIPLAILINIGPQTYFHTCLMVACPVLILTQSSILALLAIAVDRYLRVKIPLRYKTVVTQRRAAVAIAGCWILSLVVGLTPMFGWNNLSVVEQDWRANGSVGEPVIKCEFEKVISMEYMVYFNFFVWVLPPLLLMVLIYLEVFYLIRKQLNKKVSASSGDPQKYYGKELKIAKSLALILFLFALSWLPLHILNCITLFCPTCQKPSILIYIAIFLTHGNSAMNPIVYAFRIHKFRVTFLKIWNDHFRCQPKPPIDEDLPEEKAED

muscarinic cholinergic = experiment: Muscarinic cholinergic membrane receptor assay; assay type: binding, rat; details: at 1 µM
NMB Receptor = biological target: T9, NMB Receptor (Rattus norvegicus, UniProt P24053); experiment: [3H]inositol phosphates (IP) in NMB-R transfected cells; assay type: cell-based
T9 construct: a full length NMB-preferring bombesin receptor clone generated from rat esophagus; expressed in transfected cells; host or cells: BALB 3T3 cells
T9 sequence (P24053 1-390): T1 sequence (P24053 1-390)
Procedure, shortened: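 BALB 3T3 cells stably expressing rat NMB receptor, labelled 48 h with myo-[2-3H]inositol, then 60 min at 37°C in LiCl-containing buffer with agonists, or with 3 nM NMB plus antagonists. Total [3H]IP isolated by anion-exchange chromatography.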

With `CC(C)[C@@H]1NC(=O)[C@H](CCCCN)NC(=O)[C@@H](Cc2c[nH]c3ccccc23)NC(=O)[C@H](Cc2ccc(O)cc2)NC(=O)[C@@H](NC(=O)[C@H](N)Cc2ccc3ccccc3c2)CSSC[C@@H](C(=O)N[C@@H](Cc2ccc3ccccc3c2)C(N)=O)NC1=O` [Analog #1, D-Nal-Cys-Tyr-D-Trp-Lys-Val-Cys-Nal-NH2] (H-[d2Nal]CY[dW]KVC[2Nal]-NH2; disulfide 2-7; N-terminus assumed) the “[^3H]IP, Peptide Added ET-1 (0.1 nM)” value ([1]; C-6 glioblastoma cells, analog 10 µM plus ET-1 0.1 nM) was 10.9 ± 1.8 dpm x 10^3, the “effect on endothelin-1-simulated increases in [^3H]IP in C-6 cells” value [1] was “had no effect” and the “effect on endothelin-1-simulated increases in [^3H]IP in C-6 cells” value ([1]; listed as Cycle SS-octa) was “did not inhibit”. The “inhibition of binding to benzodiazepine-neural” value (benzodiazepine-neural) was “did not inhibit binding”, the “complete inhibition of binding of ^125I-[Tyr^0]NMB at” value (rat NMB receptor; NMB-R transfected cells) was 3 µM and the “fold greater affinity for the NMB than the GRP receptors” value (rat NMB receptor) was 84 fold. For the same compound, the “fold greater affinity for the NMB than the GRP receptors” value (rat NMB receptor; listed as cyclo SS-octa) was 100 fold, the “detectible inhibition of binding of ^125I-[Tyr^0]NMB at” value (rat NMB receptor; NMB-R transfected cells, lowest concentration with detectable inhibition) was 0.1 µM and the “inhibition of binding to α2- adrenergic” value (α2- adrenergic) was “did not inhibit binding”. For the same compound, the “inhibition of binding to dopamine2” value (dopamine2) was “did not inhibit binding”, the “inhibition of binding to bradykinin1” value (bradykinin1) was “did not inhibit binding” and the “inhibition of binding to histamine H1” value (histamine H1) was “did not inhibit binding”. For the same compound, the “inhibition of binding to β1-adrenergic” value (β1-adrenergic) was “did not inhibit binding”, the “inhibition of binding to CCKA” value (CCKA receptors) was “did not inhibit binding” and the “inhibition of binding to benzodiazepine peripheral” value [2] was “did not inhibit binding”. For the same compound, the “inhibition of binding to delta opioid” value (delta opioid) was “did not inhibit binding”, the “inhibition of binding to adenosine1” value (adenosine1) was “did not inhibit binding” and the “inhibition of binding to muscarinic cholinergic” value (muscarinic cholinergic) was “did not inhibit binding”. The “regression slope of Schild plot” value (NMB Receptor; 1, 3 or 10 µM cyclo SS-octa on NMB dose-response curve) was 1.1(+0.2), the “complete inhibition of NMB-stimulated increases in [^3H]IP at” value (NMB Receptor; NMB-R transfected cells) was 10 µM and the “detectible inhibition of NMB-stimulated increases in [^3H]IP at” value (NMB Receptor; NMB-R transfected cells) was 0.3 µM. For the same compound, the “effect on NMB-stimulated increase in [^3H]IP” value (NMB Receptor; NMB-R transfected cells, 3 nM NMB, peptide 10 µM) was “completely inhibited”, the “NMB-R Transfected Cells [^3H]IP Alone (10 µ M)” value (NMB Receptor; analog 10 µM alone, no-additive control 13 ± 3) was 12 ± 2 dpm x 10^3 and the “NMB-R Transfected Cells [^3H]IP Plus NMB (3 nM)” value (NMB Receptor; analog 10 µM plus NMB 3 nM, NMB without analog 186 ± 58) was 8 ± 4 dpm x 10^3. The Kd (NMB Receptor; rightward shift of NMB dose-response curve, NMB-R transfected cells, read-out: affinity for the NMB receptor from Schild plot) was 231 ± 43 nM.
